# Structures can show the parent of a compound that is named as a salt.
# What was measured:
# [1] = Aerosol performance by Next Generation Impactor (Example 4); assay type: physicochemical; set-up: MDD: unit not given beside the values; settings: mean; for FPM: particles equal to or lower than 5.0 micron
# [2] = In-use stability of aerosol performance (FPM drop, NGI) on storage at 30° C. and 75% relative humidity; assay type: physicochemical; settings: in use at 30° C./75%
# [3] = Sample A (coarse lactose batch A)
# [4] = Sample A (coarse lactose batch A, tapped density 0.72)
# [5] = Sample B (coarse lactose batch B)
# [6] = Sample B (coarse lactose batch B, tapped density 0.69)
# [7] = second block of Table 1 without sub-heading (co-micronization formulation), T = 0 + 1 M
# [8] = second block of Table 1 without sub-heading (co-micronization formulation), T = 0 + 2 M
# [9] = second block of Table 1 without sub-heading (co-micronization formulation), T = 0 + 3 M
# [10] = simple mixing process formulation, T = 0 + 1 M, mean values
# [11] = simple mixing process formulation, T = 0 + 1.5 M, mean values
# [12] = simple mixing process formulation, T = 0 + 2 M, mean values
# [13] = simple mixing process formulation, T = 0 + 3 M, mean values
Structure (SMILES),"DD [1, 3]","FPF [1, 3] [%]","MDD [1, 3]","FPM [1, 4]","DD [1, 5]","FPF [1, 5] [%]","MDD [1, 5]","FPM [1, 6]","FPM drop (%) [2, 7] [%]","FPM drop (%) [2, 8] [%]","FPM drop (%) [2, 9] [%]","FPM drop (%) [2, 10] [%]","FPM drop (%) [2, 11] [%]","FPM drop (%) [2, 12] [%]","FPM drop (%) [2, 13] [%]"
"CCC(=O)OCC(=O)[C@@]1(OC(=O)CC)[C@@H](C)C[C@H]2[C@@H]3CCC4=CC(=O)C=C[C@]4(C)[C@@]3(Cl)[C@@H](O)C[C@@]21C [BDP, (8S,9R,10S,11S,13S,14S,16S,17R)-9-chloro-11-hydroxy-10,13,16-trimethyl-3-oxo-17-[2-(propionyloxy)acetyl]-6,7,8,9,10,11,12,13,14,15,16,17-dodecahydro-3H-cyclopenta[a]phenanthren-17-yl propionate]",90.4,45,92.4,41.6,88.6,33.4,88.5,29.5,−10.4,−20.3,−19.6,−22.1,−30.5,−26.3,−30.2
"COc1ccc(CC(C)NCC(O)c2ccc(O)c(NC=O)c2)cc1 (centres unmarked) [FF, formoterol fumarate dihydrate]",5.6,48.4,5.6,2.7,5.4,36.8,5.4,2.0,–,–,–,–,–,–,–
"C[N+]1(C)CCC(OC(=O)C(O)(c2ccccc2)C2CCCC2)C1 (centres unmarked) [GB, glycopyrronium bromide]",11.4,41.3,11.7,4.8,11.0,30.9,11.1,3.4,−7.8,−19.1,−20.7,−24.5,−36.5,−29.5,−33.1
